Reference: US12128050B2, “KP372-1-induced DNA damage as a chemotherapeutic approach to treat cancer” (New Mexico Tech University Research Park Corporation, priority 2020, dated 2024)

What was measured:
Format in all cases: cell-based
Capan-2 cells = test: DNA content assay (relative survival), Capan-2; details: 2 h
Description: (§1) DNA content assay: A modified cell survival assay measuring DNA content over ˜7-day period was utilized. Cells were seeded at 10,000 cells/well in 48-well plates in 0.5 mL of media. […] The cells were exposed for 2 hours (2 h) and the media were again aspirated and replaced with fresh media (without KP372-1). The cells were then allowed to grow for ˜7 days or until control samples became confluent. […] The DNA content was determined by measuring florescence signal using a Victor X5 plate reader. Fluorescence values of treated samples were normalized to that of control samples and plotted as means±SEM for treated over control (i.e., DMSO) treated (T/C) samples. The reported values are the results of the following sample sizes for KP372-1±DIC: MIA PaCa-2 concentration (n=5); Capan-2 concentration (n=3); MIA PaCa-2±siSCR/siNQO1 (n=3); hTERT-HPNE (n=3); PANC-1 (n=3); AsPC-1 (n=4); BxPC-3 (n=3); MIA PaCa-2 time (n=3); Capan-2 time (n=3). The reported values are the results of the following sample sizes for β-lap±DIC: MIA PaCa-2 (n=4) and Capan-2 (n=4).

MIA PaCa-2 cells [1] = test: DNA content assay (relative survival), MIA PaCa-2; details: 2 h
Description: as §1

MIA PaCa-2 cells [2] = test: KP372-1 + BMN 673 combination survival / synergy (CompuSyn); details: Fa=0.9; 0.075 μM KP372-1 + 1 μM BMN 673 in combination
Description: DNA content assay: A modified cell survival assay measuring DNA content over ˜7-day period was utilized. Cells were seeded at 10,000 cells/well in 48-well plates in 0.5 mL of media. The next day, media were aspirated and replaced with 0.5 mL media containing the indicated concentrations of KP372-1 (μM) alone or in combination with 50 μM DIC. The cells were exposed for 2 hours (2 h) and the media were again aspirated and replaced with fresh media (without KP372-1). The cells were then allowed to grow for ˜7 days or until control samples became confluent. Cells were then lysed in 250 μl dI water, then freeze-thawed followed by suspension in 0.5 mL 1× TNE buffer containing Hoechst 33258 fluorescent dye. The DNA content was determined by measuring florescence signal using a Victor X5 plate reader. Fluorescence values of treated samples were normalized to that of control samples and plotted as means±SEM for treated over control (i.e., DMSO) treated (T/C) samples. […]
Synergy calculations: Drug synergy was calculated using CompuSyn 1.0 software (www.combosyn.com). […] Then, cell survival was assessed via DNA content assay similarly to as described above. […] Dose-Reduction Index (DRI) values were calculated using the Chou-Talalay method. Briefly, DRI values are calculated using the following equation: DRI=(Dx)1/(D)1 where (Dx)1 is the dose of the drug alone and (D)1 is the dose of the drug in combination. […]

Row | Compound | concentration up to which no appreciable toxicity was induced (Capan-2 cells) | concentration up to which no appreciable toxicity was induced (MIA PaCa-2 cells [1]) | dose reduction index (DRI) (MIA PaCa-2 cells [2])
1 | CC1(C)CCC2=C(O1)c1ccccc1C(=O)C2=O [β-lap, β-lapachone] | up to 1.0 μM | up to 2.0 μM | 
2 | Cn1ncnc1[C@H]1c2n[nH]c(=O)c3cc(F)cc(c23)N[C@@H]1c1ccc(F)cc1 [BMN 673, talazoparib] |  |  | 3.99
